pIC50: −log10 of the molar value.
System: 855422-203-R-J1-PDC spheroids with HUVEC/MSC, viability
Assay: Anticancer human tumor 855422-203-R-J1-PDC patient-derived bladder carcinoma cell line growth inhibition [PI3K]
Details: for pIC50: curve of first compound; for viability, T/C: stronger effect = lower value; active means viability on the fitted dose curve at most 10% of control; inactive means the rest
Text: Combinatorial screen of targeted agents with the PI3K inhibitors inavolisib, alpelisib, duvelisib, and copanlisib in multi-cell type tumor spheroids
A high-throughput screen of multi-cell type tumor spheroids was designed to identify active combinations of targeted small molecules and PI3K pathway inhibitors. Complex spheroids include a stromal component modeled by human endothelial cells (HUVEC) and fibroblasts modeled by human mesenchymal stem cells (MSCs). The concentration ranges selected for each drug and investigational agent were based upon clinically achievable concentrations if the clinical Cmax of the agent was known.
Compounds. The drugs and investigational agents: inavolisib (NSC800729), alpelisib (NSC765974), duvelisib (NSC772469), copanlisib (NSC816437), ipatasertib (NSC767898), afuresertib (NSC778305), talazoparib (NSC767125), sapanisertib (NSC764658), selumetinib (NSC741078), tovorafenib (DAY101, NSC766906), vemurafenib (NSC761431), ravoxertinib (NSC781343), sotorasib (NSC818433), MRTX1133 (NSC 836407), abemaciclib (NSC 768073), palbociclib (NSC758247), venetoclax (NSC 766270), SY5609 (NSC837396), enzalutamide (NSC755605), and darolutamide (NSC825331), were obtained from the National Cancer Institute (NCI) Developmental Therapeutics Program Chemical Repository. The FDA-approved anticancer drug set is available from the NCI Developmental Therapeutics Program. […] The stock solutions were prepared in dimethyl sulfoxide (DMSO, Sigma-Aldrich, St. Louis, MO, cat. D2650) at 800-fold the tested concentration and stored at -70 degrees C prior to their use. All drugs and investigational agents were tested over a range starting from a high concentration at or near the clinical Cmax and decreasing in half-log increments. If the clinical Cmax for an agent had not been determined, the highest concentration tested was 10 microM.
Cell Culture. All cells were maintained in an incubator at 37 degrees C and 5% CO2 with 95% humidity. The PDC lines were cultured according to standard operating procedures established by the NCI PDMR (https://pdmr.cancer.gov/sops/default.htm). All PDCs were thawed and cultured in Matrigel-coated flasks prepared with a working solution of 1X Ham's F-12 nutrient mix, without supplementation (Invitrogen, Waltham, MA, cat. 11765054), 100 U/mL penicillin-streptomycin (Invitrogen, cat. 15140122), and 2.5% Matrigel (Corning Inc., Corning, NY, cat. 354248) for the first three passages. The 354836-022-R-J1-PDC, 475296-252-R-J1-PDC, and 997726-040-R-J2-PDC lines were cultured in 6A media, which includes advanced DMEM/F-12 (Thermo Fisher Scientific, cat. 12634028), 10 mM HEPES (Thermo Fisher Scientific, cat. 15630080), 1X GlutaMAX supplement (Thermo Fisher Scientific, cat. 35050061), 0.1 mg/mL primocin (InvivoGen, San Diego, CA, cat. ant-pm-2), 10% defined fetal bovine serum, heat inactivated (HyClone Laboratories Inc., Logan, UT, cat. SH30070.03HI), 50% L-WRN conditioned media (ATCC, cat. CRL-3276), 1.25 mM N-Acetyl-L-cysteine (Sigma-Aldrich, cat. A9165), 10 mM nicotinamide (Sigma-Aldrich, cat. N0636), 1X B-27 supplement (Thermo Fisher Scientific, cat. 17504044), 1X N-2 supplement (Thermo Fisher Scientific, cat. 17502048), and 10 microM Y-27632 dihydrochloride (Tocris Bioscience, Bristol, United Kingdom, cat. 1254). The 624824-186-R-J2-PDC line was cultured in 6C/Colon 1B media, which includes all 6A media components plus 50 ng/mL human EGF recombinant protein (Thermo Fisher Scientific, cat. PHG0311). […]
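Further: agents incubated with spheroids for one week before read-out.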
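Wherever viability, T/C is given: 100% = DMSO vehicle-treated control wells.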

CNC(=O)c1ccc(N2C(=S)N(c3ccc(C#N)c(C(F)(F)F)c3)C(=O)C2(C)C)cc1F + CC(Nc1ccc2c(c1)OCCn1cc(N3C(=O)OCC3C(F)F)nc1-2)C(N)=O
inactive: viability, T/C (second compound 0.00316 µM, first compound 0.0316 µM) 106% | viability, T/C (second compound 0.00316 µM, first compound 0.1 µM) 83.8% | viability, T/C (second compound 0.00316 µM, first compound 0.316 µM) 95.8% | viability, T/C (second compound 0.00316 µM, first compound 1 µM) 81.2% | viability, T/C (second compound 0.00316 µM, first compound 3.16 µM) 72.9% | viability, T/C (second compound 0.00316 µM, first compound 10 µM) 65.4% | viability, T/C (second compound 0.01 µM, first compound 0.0316 µM) 102% | viability, T/C (second compound 0.01 µM, first compound 0.1 µM) 91.2% | viability, T/C (second compound 0.01 µM, first compound 0.316 µM) 90% | viability, T/C (second compound 0.01 µM, first compound 1 µM) 77.3% | viability, T/C (second compound 0.01 µM, first compound 3.16 µM) 79% | viability, T/C (second compound 0.01 µM, first compound 10 µM) 72.5% | viability, T/C (second compound 0.0316 µM, first compound 0.0316 µM) 86.6% | viability, T/C (second compound 0.0316 µM, first compound 0.1 µM) 82.1% | viability, T/C (second compound 0.0316 µM, first compound 0.316 µM) 79.9% | viability, T/C (second compound 0.0316 µM, first compound 1 µM) 66.6% | viability, T/C (second compound 0.0316 µM, first compound 3.16 µM) 72.8% | viability, T/C (second compound 0.0316 µM, first compound 10 µM) 64.3% | viability, T/C (second compound 0.1 µM, first compound 0.0316 µM) 76.9% | viability, T/C (second compound 0.1 µM, first compound 0.1 µM) 76.7% | viability, T/C (second compound 0.1 µM, first compound 0.316 µM) 83.3% | viability, T/C (second compound 0.1 µM, first compound 1 µM) 63.1% | viability, T/C (second compound 0.1 µM, first compound 3.16 µM) 62% | viability, T/C (second compound 0.1 µM, first compound 10 µM) 52.8% | viability, T/C (second compound 0.316 µM, first compound 0.0316 µM) 51.4% | viability, T/C (second compound 0.316 µM, first compound 0.1 µM) 46.9% | viability, T/C (second compound 0.316 µM, first compound 0.316 µM) 53.6% | viability, T/C (second compound 0.316 µM, first compound 1 µM) 49.1% | viability, T/C (second compound 0.316 µM, first compound 3.16 µM) 52.7% | viability, T/C (second compound 0.316 µM, first compound 10 µM) 43.1% | viability, T/C (second compound 1 µM, first compound 0.0316 µM) 37.2% | viability, T/C (second compound 1 µM, first compound 0.1 µM) 36.4% | viability, T/C (second compound 1 µM, first compound 0.316 µM) 37% | viability, T/C (second compound 1 µM, first compound 1 µM) 41.3% | viability, T/C (second compound 1 µM, first compound 3.16 µM) 38.5% | viability, T/C (second compound 1 µM, first compound 10 µM) 33.8%
6.58: pIC50 (second compound 0.316 µM)
> 7.50: pIC50 (second compound 1 µM)
< 5.00: pIC50 (second compound 0.00316 µM) | pIC50 (second compound 0.01 µM) | pIC50 (second compound 0.0316 µM) | pIC50 (second compound 0.1 µM)

Source: PubChem BioAssay AID1963967 (Molecular Pharmacology Branch, DTP, NCI, 2024)
